Read-outs that look alike come from different tables or passages of the source.
What was measured:
[1] = system: Rac; conditions: cited from earlier work
[2] = system: GFP-HER2-BM cells; assay: Cell viability (MTT) assay; format: cell-based, human
Experimental: (§1) Using CellTiter 96 Non-Radioactive Cell Proliferation Assay (Promega, Corp.) according to manufactures’ instructions, formazan was used as an indicator of viable cells at an absorbance 570 nm in a Tecan Microplate Reader M100 (Tecan). Data were calculated as fold change from vehicle and transformed to logarithm base 10. 0 concentration was replaced with 1 nmol/L to fit using the 4-parameter logic nonlinear regression model in GraphPad Prism software. (n = 3 biologic replicates: with three technical replicates each).
(§2) All half maximal growth inhibitory concentration (GI50) values were determined by using the 4-parameter logistic curve model in GraphPad Prism 9 software. Statistical analyses were done also using GraphPad Prism 9 software, and differences were considered statistically significant at P ≤ 0.05 using ordinary one-way ANOVA or unpaired Student t test with Dunnet multiple comparison tests.

[3] = system: GFP-HER2-BM cells; assay: Apoptosis assay (Caspase-Glo3/7); format: cell-based, human; conditions: 500 nmol/L, 48 hours
Experimental: (§3) Apoptosis was measured using a Caspase-Glo3/7 Luminescence Assay Kit as per manufacturer's instructions (Promega, Corp.), as described previously ([23]). Briefly, Caspase-3/7 Glo reagent was added and incubated at room temperature for 60 minutes and caspase-3/7 activities were determined by detecting luminescence using Tecan Microplate Reader M100 (Tecan). Data were calculated as fold change from vehicle. (n = 3 biologic replicates: with three technical replicates each).

[4] = system: MDA-MB-468 cells; assay: Apoptosis assay (Caspase-Glo3/7); format: cell-based, human; conditions: 500 nmol/L, 48 hours
Experimental: as §3

[5] = system: MCF10A cells; assay: Cell viability (MTT) assay; format: cell-based, human
Experimental: as §1, §2

[6] = system: MDA-MB-231 cells; assay: Cell viability (MTT) assay; format: cell-based, human
Experimental: as §1, §2

[7] = system: HMEC cells; assay: Cell viability (MTT) assay; format: cell-based, human; conditions: 120 hours, 0 to 1,000 nmol/L
Experimental: as §1

[8] = system: MDA-MB-468 cells; assay: Cell viability (MTT) assay; format: cell-based, human; conditions: 500 nmol/L, 72 hours
Experimental: as §1

[9] = system: MCF7 breast cancer cells; assay: Cell viability (MTT) assay; format: cell-based, human; conditions: 250 nmol/L, 120 hr
Experimental: as §1
Supplementary Figure S1. Percentage cell viability of MDA-MB-231, GFP-HER2-BM, […]
nM for 120 hr. The bar graphs are presented as individual fold change data points from vehicle and grouped mean ± SEM. (n = 3; *, P < 0.05; ** P < 0.01).
(1 picture or pasted object on this page, not shown here)

[10] = system: MDA-MB-231 cells; assay: Apoptosis assay (Caspase-Glo3/7); format: cell-based, human; conditions: 500 nmol/L, 48 hours
Experimental: as §3

[11] = system: MDA-MB-231, GFP-HER2-BM, and MDA-MB-468 cells; assay: Apoptosis assay (Caspase-Glo3/7), cell line not specified; format: cell-based, human; conditions: 500 nmol/L, 48 hours
Experimental: as §3

[12] = system: MDA-MB-231 cells; assay: Wound healing assay; format: cell-based, human; conditions: 250 nmol/L; 12 and 24 hours
Experimental: MDA-MB-231 cells were plated on 12-well plates at equal cell density until confluent. Then the media was changed to 1% FBS, and a single scratch was made in the center of the monolayer culture with a pipet tip. Compounds were added immediately at 250 or 500 nmol/L and images were digitally acquired from a Keyence microscope (10×) at 0, 12, and 24 hours. The scratch area was quantified in ImageJ using the Macro Wound Healing Tool (http://dev.mri.cnrs.fr/projects/imagej-macros/wiki/Wound_Healing_Tool; n = 3 biologic replicates: with three technical replicates each).

[13] = system: MDA-MB-231 cells; assay: Phalloidin staining of F-actin, cell phenotype; format: cell-based, human; conditions: 250 nmol/L, 12 hours
Text: Cells were fixed, permeabilized, and stained with rhodamine phalloidin to visualize F-actin as described previously ([23]). Fluorescence micrographs were acquired at 40× in a Keyence fluorescence microscope.

[14] = system: A549 lung cancer cells; assay: EGF-induced ruffle formation; format: cell-based, human; conditions: 24 hours, then EGF 200 ng/mL
Experimental: Cells were fixed with 4% formaldehyde and F-actin stained with rhodamine phalloidin. Slides were visualized by fluorescence microscopy and five random fields were scored for the number of ruffles. Ruffle area was measured by thresholding for single intensity using ImageJ/Fiji software, as in ref. [29].

[15] = biological target: T1, Rac1(G15A) interaction with Vav2 (Homo sapiens, UniProt P63000, G15A); assay: Rac1 (G15A) pulldown assay, Vav2; format: binding; conditions: for potency relative to EHop-016 (parent compound): Vav/Rac inhibitor
T1 construct: purchased Cell Biolabs; host or cells: GEF from MDA-MB-231 lysate
Experimental: MDA-MB-231 cells were lysed in 1% Triton X-100, 20 mmol/L HEPES, pH 7.4, 150 mmol/L NaCl, 5 mmol/L MgCl2, and protease inhibitors, and processed as described previously ([20]). Equal amounts of protein from cleared lysates were incubated for 1 hour at 4°C with glutathione-agarose beads conjugated to GST-Rac1 and GST-Cdc42(G15A) nucleotide-free mutant (Cell Biolabs) that were preincubated (for 1 hour) with vehicle or Rac/Cdc42 inhibitors, as indicated. The beads were washed, and pulldowns were immunoblotted for Vav2 or Ect2.

[16] = biological target: Rac1 (Homo sapiens, UniProt P63000); assay: Rac activation pulldown assay in MDA-MB-231 cells; conditions: MDA-MB-231, read-out: inhibition of Rac1 activity, MDA-MB-231, 250 nmol/L, 24 hours
[17] = biological target: Rac1B splice variant (Homo sapiens, UniProt P63000); assay: Rac1B activation pulldown assay in MDA-MB-468 cells; conditions: MDA-MB-468, read-out: inhibition of Rac1B activation, MDA-MB-468, 500 nmol/L, 24 hours
[18] = biological target: T2, CYP2C19 (Homo sapiens, UniProt P33261); assay: CyP450 enzyme assay (P450-Glo); format: in vitro ADME
T2 construct: purchased Promega
T2 sequence (P33261 whole entry): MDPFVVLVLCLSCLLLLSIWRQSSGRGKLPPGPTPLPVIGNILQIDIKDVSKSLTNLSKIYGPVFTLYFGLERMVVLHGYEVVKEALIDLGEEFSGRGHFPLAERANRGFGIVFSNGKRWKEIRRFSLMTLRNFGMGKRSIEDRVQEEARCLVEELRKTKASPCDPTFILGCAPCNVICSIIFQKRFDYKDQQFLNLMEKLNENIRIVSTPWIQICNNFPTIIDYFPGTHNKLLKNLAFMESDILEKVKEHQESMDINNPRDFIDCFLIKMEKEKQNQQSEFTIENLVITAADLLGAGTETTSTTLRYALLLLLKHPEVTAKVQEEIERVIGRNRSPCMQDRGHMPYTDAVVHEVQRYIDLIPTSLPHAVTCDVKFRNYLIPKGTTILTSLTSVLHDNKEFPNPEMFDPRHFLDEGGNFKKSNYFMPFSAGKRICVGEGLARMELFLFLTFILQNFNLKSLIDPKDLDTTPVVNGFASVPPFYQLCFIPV
Experimental: (§4) The assay was carried out using P450-Glo Screening System (Promega). The system contained recombinant human CYP enzyme and P450 reductase (and cytochrome b5 for CYP2C9, 2C19, and 3A4), luminogenic substrates appropriate for each CYP enzyme, a NADPH regeneration system (containing NADP+), and luciferin detection reagent. […] These compounds and organic solvents acetonitrile, and DMSO were purchased from Sigma-Aldrich.
(§5) First, 12.5 μL of the 4X stock solution of test compounds or positive controls (appropriate for each enzyme) were added to the “treated” wells. For the “untreated” (the values from these wells represent total CYP activity) and “minus-P450 control” wells (the values from these wells represent the CYP-independent background luminescence of the assay), 12.5 μL of vehicle was added. Then, 12.5 μL of the 4X control reaction mixture (containing membrane preparations devoid of CYP enzymes, the appropriate luminogenic substrate, and potassium phosphate buffer) were added to the minus-P450 control wells, and 12.5 μL of the 4X reaction mixture (containing human CYP membrane preparations, the appropriate luminogenic substrate, and potassium phosphate buffer) were added to all other wells. The plates were preincubated at room temperature for 10 minutes with the reaction mixture (membrane with enzyme, substrate, and 1 mol/L potassium phosphate buffer), and then 2X NADPH regeneration system was added to initiate the reaction. After incubation at room temperature for 30 minutes, 50 μL of the Luciferin Detection Reagent was added to stop the reaction and generate the luminescent signal. Before reading, the plate was incubated at room temperature for 20 minutes to stabilize the luminescent signal. The luminescence was measured using an Infinite F200 plate reader (Tecan). […] The percentage of CYP enzyme activity versus log concentration of test compounds were plotted to calculate the IC50 values.

[19] = biological target: T3, CYP2C9 (Homo sapiens, UniProt P11712); assay: CyP450 enzyme assay (P450-Glo); format: in vitro ADME; conditions: recombinant human CYP enzyme, 0.001–100 μmol/L
T3 construct: purchased Promega
T3 sequence (P11712 whole entry): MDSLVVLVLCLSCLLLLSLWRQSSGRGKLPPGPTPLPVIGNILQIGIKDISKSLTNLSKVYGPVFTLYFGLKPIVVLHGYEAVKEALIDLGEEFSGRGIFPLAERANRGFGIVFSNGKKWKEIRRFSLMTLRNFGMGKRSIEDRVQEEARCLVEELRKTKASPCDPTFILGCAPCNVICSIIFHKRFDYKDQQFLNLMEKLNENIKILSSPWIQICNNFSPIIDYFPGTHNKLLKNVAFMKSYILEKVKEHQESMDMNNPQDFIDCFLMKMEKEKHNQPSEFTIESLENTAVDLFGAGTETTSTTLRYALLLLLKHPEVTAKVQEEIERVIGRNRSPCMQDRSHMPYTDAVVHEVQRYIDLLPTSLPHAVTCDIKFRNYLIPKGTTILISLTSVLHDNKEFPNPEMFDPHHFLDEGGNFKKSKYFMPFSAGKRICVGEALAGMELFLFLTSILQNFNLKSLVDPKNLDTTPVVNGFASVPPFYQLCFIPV
Experimental: as §4, §5

[20] = biological target: T4, CYP3A4 (Homo sapiens, UniProt P08684); assay: CyP450 enzyme assay (P450-Glo); format: in vitro ADME; conditions: recombinant human CYP enzyme, 0.001–100 μmol/L
T4 construct: purchased Promega
T4 sequence (P08684 whole entry): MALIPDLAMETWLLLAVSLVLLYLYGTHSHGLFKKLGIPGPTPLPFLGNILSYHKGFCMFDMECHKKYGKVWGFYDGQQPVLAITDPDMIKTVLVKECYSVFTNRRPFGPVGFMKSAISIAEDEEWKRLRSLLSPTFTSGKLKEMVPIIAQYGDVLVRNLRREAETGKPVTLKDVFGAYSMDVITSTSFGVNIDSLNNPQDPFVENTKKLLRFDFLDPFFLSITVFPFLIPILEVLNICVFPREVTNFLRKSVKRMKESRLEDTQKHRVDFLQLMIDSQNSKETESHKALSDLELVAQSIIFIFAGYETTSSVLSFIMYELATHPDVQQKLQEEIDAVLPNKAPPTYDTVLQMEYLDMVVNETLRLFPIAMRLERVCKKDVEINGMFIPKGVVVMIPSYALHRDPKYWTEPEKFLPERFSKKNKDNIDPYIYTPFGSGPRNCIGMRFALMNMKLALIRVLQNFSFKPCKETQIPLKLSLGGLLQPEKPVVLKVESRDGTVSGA
Experimental: as §4, §5

[21] = system: GFP-HER2-BM, MDA-MB-231, and MDA-MB-468 cancer cell lines; assay: Cell viability (MTT) assay, three cancer cell lines together; format: cell-based, human
Experimental: as §1

[22] = system: Cdc42; parameters: method as in PMID 23382385; conditions: read-out: IC50, Cdc42 selective inhibitor; cited from earlier work
[23] = system: Rac1; parameters: method as in PMID 15128949; conditions: inhibits Rac1 binding and activation by the GEFs Trio and Tiam1; cited from earlier work

SMILES: O=c1cc(CN2CCOCC2)occ1OCCCCCSc1ccnc2cc(C(F)(F)F)ccc12 [EHT1864]
- IC50 [1]: > 10 µM

SMILES: CCn1c2ccccc2c2cc(Nc3ccnc(NCCCN4CCOCC4)n3)ccc21 [EHop-016]
- IC50 ([1]; blocking the interaction of Rac with the GEF Vav): 1.1 µM

SMILES: CCn1c2ccccc2c2cc(-n3nnc(C(O)c4cccnc4)c3-c3ccccc3)ccc21 (stereo not drawn) [EHop-040]
- inhibition of cell viability ([2]; 500 nmol/L, 72 hours): 80%
- Caspase-3/7 activity [3]: significantly increased Caspase-3/7 activity
- Caspase-3/7 activity [4]: significantly increased Caspase-3/7 activity

SMILES: CCn1c2ccccc2c2cc(-n3nnc(C(O)c4cccc(OC)c4)c3-c3ccccc3)ccc21 (stereo not drawn) [EHop-097]
- inhibition of cell viability ([2]; 250 nmol/L, 120 hr): approximately 60%
- inhibition of cell viability ([2]; 500 nmol/L, 72 hours): 80%
- GI50 ([2]; Homo sapiens, 120 hours, 0 to 1,000 nmol/L): 0.261 µM
- inhibition of cell viability ([5]; 250 nmol/L, 120 hr): not effective
- GI50 ([5]; Homo sapiens, MCF-10A, 120 hours, 0 to 1,000 nmol/L): 0.335 µM
- inhibition of cell viability ([6]; 250 nmol/L, 120 hr): not effective
- inhibition of cell viability ([6]; 500 nmol/L, 72 hours): 50%
- GI50 ([6]; Homo sapiens, MDA-MB-231, 120 hours, 0 to 1,000 nmol/L): 0.327 µM
- effect on viability of HMECs [7]: did not affect the viability of HMECs
- inhibition of cell viability [8]: nonstatistically significant trend
- inhibition of cell viability [9]: not effective
- Caspase-3/7 activity [3]: significantly increased Caspase-3/7 activity
- Caspase-3/7 activity [10]: significantly increased Caspase-3/7 activity
- caspase-3/7 activity compared with the vehicle [11]: three to five times
- wound closure [12]: wound area was maintained at 12 and 24 hours
- cell phenotype, actin cytoskeleton [13]: smaller and less spread but did not have the characteristic loss of polarity
- loss in ruffles ([14]; 500 nmol/L): 33%
- decrease in ruffles ([14]; 1,000 nmol/L): 58%
- Rac1(G15A) interaction with Vav2 ([15]; 250 nmol/L, 1 hour preincubation, MDA-MB-231 cell lysates): blocked the interaction
- efficacy compared with EHop-016 at 8 μmol/L ([15]; EHop-097 at 250 nmol/L): 4 X
- potency relative to EHop-016 (parent compound) [15]: 10–30 ×
- potency relative to EHop-016 (parent compound) ([15]; listed as Ehop-097): 10 ×
- inhibition at 0.25 µM [16]: ~85%
- inhibition at 0.5 µM [17]: ~60%

SMILES: CCn1c2ccccc2c2cc(-n3nnc(C(O)c4ccco4)c3-c3ccccc3)ccc21 (stereo not drawn) [EHop-098]
- inhibition of cell viability ([2]; 500 nmol/L, 72 hours): 80%

SMILES: CCn1c2ccccc2c2cc(-n3nncc3-c3cccc(C)c3)ccc21 [MBQ-169]
- inhibition of cell viability ([2]; 500 nmol/L, 72 hours): approximately 75%
- Caspase-3/7 activity [3]: significantly increased Caspase-3/7 activity
- CYP2C19 IC50, fold lower than the IC50 for the positive control [18]: approximately 6 fold
- IC50 at 30 min ([18]; human, recombinant human CYP enzyme, 0.001–100 μmol/L): 0.58 µM
- IC50 [19]: 0.87 µM
- IC50 [20]: 3.31 µM

SMILES: CCn1c2ccccc2c2cc(-n3nncc3-c3ccccn3)ccc21 [MBQ-170]
- effect on viability of cancer cells [21]: did not affect the viability of cancer cells
- wound closure [12]: wound was closed in 24 hours

SMILES: CCn1c2ccccc2c2cc(-n3nncc3-c3cccnc3)ccc21 [MBQ-171]
- inhibition of cell viability ([2]; 500 nmol/L, 72 hours): approximately 75%
- IC50 ([18]; recombinant human CYP enzyme, 0.001–100 μmol/L): 12.4 µM
- IC50 [19]: 1.55 µM
- IC50 [20]: 8.04 µM

SMILES: COc1ccc(C2=NN(c3ccc(S(N)(=O)=O)cc3)C(c3ccccc3)C2)cc1 (stereo not drawn) [ML141]
- IC50 [22]: 3 to 5 µM

SMILES: O=C(C#Cc1ccccc1)c1cccc([N+](=O)[O-])c1 [MLS000532223]
- IC50 [1]: > 10 µM

— article PMC9970268 (Cancer Research Communications, 2022)
